Biological target: T1, human PAR4 (Homo sapiens, UniProt Q96RI0)
T1 construct: expressed in transfected cells; host or cells: HEK293 PAR4 Clone 1.2A (BMS Arctic ID 383940)
T1 sequence (Q96RI0 18-385): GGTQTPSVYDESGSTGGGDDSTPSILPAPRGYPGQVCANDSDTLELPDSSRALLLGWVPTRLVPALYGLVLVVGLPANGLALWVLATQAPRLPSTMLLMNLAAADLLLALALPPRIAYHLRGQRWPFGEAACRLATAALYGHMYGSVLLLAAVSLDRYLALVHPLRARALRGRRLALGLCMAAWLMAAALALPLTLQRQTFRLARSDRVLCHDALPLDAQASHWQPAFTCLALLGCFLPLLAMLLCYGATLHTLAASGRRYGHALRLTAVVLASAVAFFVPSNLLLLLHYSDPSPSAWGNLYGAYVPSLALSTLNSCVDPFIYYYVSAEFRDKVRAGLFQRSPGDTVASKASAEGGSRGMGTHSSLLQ
Assay: PAR4 FLIPR assay: antagonism of agonist-peptide-induced calcium mobilization in PAR4-expressing HEK293 cells
Assay type: cell-based
Conditions: H-Ala-Phe(4-F)-[…]NH2-induced intracellular calcium mobilization, 11-point curves

Row | Compound | IC50 [nM]
1 | COc1cnc2c(-c3nc4cc(F)c(O[C@@H](C)[C@@H](C)OC(=O)Nc5ccncc5)cc4s3)cc(Cl)cc2c1 [Example 790, (2R,3S)-3-((2-(6-chloro-3-methoxyquinolin-8-yl)-5-fluorobenzo[d]thiazol-6-yl)oxy)butan-2-yl pyridin-4-ylcarbamate] | 4.4
2 | COc1cnc2c(-c3nc4cc(F)c(O[C@@H](C)[C@@H](C)OC(=O)Nc5cnc(CO)nc5)nc4s3)cc(C)cc2c1 [Example 792, (2R,3S)-3-((6-fluoro-2-(3-methoxy-6-methylquinolin-8-yl)thiazolo[5,4-b]pyridin-5-yl)oxy)butan-2-yl (2-(hydroxymethyl)pyrimidin-5-yl)carbamate] | 11
3 | COc1cnc2c(-c3nc4cc(F)c(O[C@@H](C)[C@@H](C)OC(=O)Nc5cnc(CO)nc5)nc4s3)cc(Cl)cc2c1 [Example 793, (2R,3S)-3-((2-(6-chloro-3-methoxyquinolin-8-yl)-6-fluorothiazolo[5,4-b]pyridin-5-yl)oxy)butan-2-yl (2-(hydroxymethyl)pyrimidin-5-yl)carbamate] | 24
4 | COc1cnc2c(-c3nc4cc(F)c(OC[C@@H](C)OC(=O)Nc5cnc(CO)nc5)nc4s3)cc(Cl)cc2c1 [Example 794, (R)-1-((2-(6-chloro-3-methoxyquinolin-8-yl)-6-fluorothiazolo[5,4-b]pyridin-5-yl)oxy)propan-2-yl (2-(hydroxymethyl)pyrimidin-5-yl)carbamate] | 10
5 | COc1cnc2c(-c3nc4c(Cl)c(F)c(O[C@@H](C)[C@@H](C)OC(=O)Nc5ccc(F)nc5)cc4s3)cc(Cl)cc2c1 [Example 797, (2R,3S)-3-((4-chloro-2-(6-chloro-3-methoxyquinolin-8-yl)-5-fluorobenzo[d]thiazol-6-yl)oxy)butan-2-yl (6-fluoropyridin-3-yl)carbamate] | 3.1
6 | COc1cnc2c(-c3nc4c(Cl)c(F)c(O[C@@H](C)[C@@H](C)OC(=O)Nc5cccnc5)cc4s3)cc(Cl)cc2c1 [Example 799, (2R,3S)-3-((4-chloro-2-(6-chloro-3-methoxyquinolin-8-yl)-5-fluorobenzo[d]thiazol-6-yl)oxy)butan-2-yl pyridin-3-ylcarbamate] | 2.9
7 | COc1cncc(NC(=O)O[C@H](C)[C@H](C)Oc2cc3sc(-c4cc(Cl)cc5cc(OC)cnc45)nc3c(Cl)c2F)c1 [Example 803, (2R,3S)-3-((4-chloro-2-(6-chloro-3-methoxyquinolin-8-yl)-5-fluorobenzo[d]thiazol-6-yl)oxy)butan-2-yl (5-methoxypyridin-3-yl)carbamate] | 3.5
8 | COc1cnc2c(-c3nc4c(Cl)c(F)c(O[C@@H](C)[C@@H](C)OC(=O)Nc5cncc(F)c5)cc4s3)cc(C)cc2c1 [Example 804, (2R,3S)-3-((4-chloro-5-fluoro-2-(3-methoxy-6-methylquinolin-8-yl)benzo[d]thiazol-6-yl)oxy)butan-2-yl (5-fluoropyridin-3-yl)carbamate] | 2.8
9 | COc1cnc2c(-c3nc4c(C(O)C(C)(C)C)cc(F)cc4s3)cc(C)cc2n1 (stereo not drawn) [Example 806, 1-(6-fluoro-2-(2-methoxy-7-methylquinoxalin-5-yl)benzo[d]thiazol-4-yl)-2,2-dimethylpropan-1-ol] | 6.6
10 | COc1cnc2c(-c3nc4c(C(O)C(C)(C)C)cc(OC)nc4s3)cc(C)cc2n1 (stereo not drawn) [Example 807, 1-(5-methoxy-2-(2-methoxy-7-methylquinoxalin-5-yl)thiazolo[5,4-b]pyridin-7-yl)-2,2-dimethylpropan-1-ol] | 2.6
11 | COc1cnc2c(-c3nc4cnccc4s3)cc(C)cc2n1 [Example 809, 2-(2-methoxy-7-methylquinoxalin-5-yl)thiazolo[4,5-c]pyridine] | 54
12 | COc1cnc2c(-c3nc4cc(F)c(OCCOC(=O)Nc5cccnc5)nc4s3)cc(C)cc2n1 [Example 810, 2-((6-fluoro-2-(2-methoxy-7-methylquinoxalin-5-yl)thiazolo[5,4-b]pyridin-5-yl)oxy)ethyl pyridin-3-ylcarbamate] | 6.9

Further lines, results first:

Row | IC50 [nM] | Compound
13 | 2.4 | COc1cnc2c(-c3nc4cc(F)c(O[C@@H](C)[C@@H](C)OC(=O)Nc5ccc(F)nc5)cc4s3)cc(Cl)cc2c1 [Example 789, (2R,3S)-3-((2-(6-chloro-3-methoxyquinolin-8-yl)-5-fluorobenzo[d]thiazol-6-yl)oxy)butan-2-yl (6-fluoropyridin-3-yl)carbamate]
14 | 2.3 | COc1cnc2c(-c3nc4cc(F)c(O[C@@H](C)[C@@H](C)OC(=O)Nc5cnc(C)nc5)nc4s3)cc(C)cc2c1 [Example 791, (2R,3S)-3-((6-fluoro-2-(3-methoxy-6-methylquinolin-8-yl)thiazolo[5,4-b]pyridin-5-yl)oxy)butan-2-yl (2-methylpyrimidin-5-yl)carbamate]
15 | 0.8 | COc1cnc2c(-c3nc4c(Cl)c(F)c(O[C@@H](C)[C@@H](C)OC(=O)Nc5cnc(OCCO)nc5)cc4s3)cc(Cl)cc2c1 [Example 795, (2R,3S)-3-((4-chloro-2-(6-chloro-3-methoxyquinolin-8-yl)-5-fluorobenzo[d]thiazol-6-yl)oxy)butan-2-yl (2-(2-hydroxyethoxy)pyrimidin-5-yl)carbamate]
16 | 1.3 | COc1cnc2c(-c3nc4c(Cl)c(F)c(O[C@@H](C)[C@@H](C)OC(=O)Nc5cnc(OC[C@@H](C)O)nc5)cc4s3)cc(Cl)cc2c1 [Example 796, (2R,3S)-3-((4-chloro-2-(6-chloro-3-methoxyquinolin-8-yl)-5-fluorobenzo[d]thiazol-6-yl)oxy)butan-2-yl (2-((R)-2-hydroxypropoxy)pyrimidin-5-yl)carbamate]
17 | 2.5 | COc1cnc2c(-c3nc4c(Cl)c(F)c(O[C@@H](C)[C@@H](C)OC(=O)Nc5ccncc5)cc4s3)cc(Cl)cc2c1 [Example 798, (2R,3S)-3-((4-chloro-2-(6-chloro-3-methoxyquinolin-8-yl)-5-fluorobenzo[d]thiazol-6-yl)oxy)butan-2-yl pyridin-4-ylcarbamate]
18 | 2.5 | COc1cnc2c(-c3nc4c(Cl)c(F)c(O[C@@H](C)[C@@H](C)OC(=O)Nc5cnc(C)c(C)c5)cc4s3)cc(Cl)cc2c1 [Example 800, (2R,3S)-3-((4-chloro-2-(6-chloro-3-methoxyquinolin-8-yl)-5-fluorobenzo[d]thiazol-6-yl)oxy)butan-2-yl (5,6-dimethylpyridin-3-yl)carbamate]
19 | 2.6 | COc1cnc2c(-c3nc4c(Cl)c(F)c(O[C@@H](C)[C@@H](C)OC(=O)Nc5ccc(OC)nc5)cc4s3)cc(Cl)cc2c1 [Example 801, (2R,3S)-3-((4-chloro-2-(6-chloro-3-methoxyquinolin-8-yl)-5-fluorobenzo[d]thiazol-6-yl)oxy)butan-2-yl (6-methoxypyridin-3-yl)carbamate]
20 | 2 | COc1cnc2c(-c3nc4c(Cl)c(F)c(O[C@@H](C)[C@@H](C)OC(=O)Nc5cncc(C#N)c5)cc4s3)cc(Cl)cc2c1 [Example 802, (2R,3S)-3-((4-chloro-2-(6-chloro-3-methoxyquinolin-8-yl)-5-fluorobenzo[d]thiazol-6-yl)oxy)butan-2-yl (5-cyanopyridin-3-yl)carbamate]
21 | 2 | COCc1cc(OC)cc2sc(-c3cc(C)cc4nc(OC)cnc34)nc12 [Example 808, 6-methoxy-2-(2-methoxy-7-methylquinoxalin-5-yl)-4-(methoxymethyl)benzo[d]thiazole]

— patent US12060347B2 (BRISTOL-MYERS SQUIBB COMPANY, priority 2016, dated 2024)
